Laboratory results: article PMC9388731, “Radiosynthesis and First Preclinical Evaluation of the Novel ^11C-Labeled FAP Inhibitor ^11C-FAPI: A Comparative Study of ^11C-FAPIs and (^68Ga) Ga-DOTA-FAPI-04 in a High–FAP-Expression Mouse Model” (Frontiers in Chemistry, 2022)
Values joined by “and” are separate entries in the source; they are usually repeats but may differ in a detail not shown here. Identical values can stand only once.

Experiments:
U87MG tumor xenografts = assay: Biodistribution (ex vivo γ-counting of organs) in U87MG tumor xenograft mice; design: species or system nude mice (female BALB/c nu/nu); details: for Tumor uptake: i.v., mean ± SD, n = 3
Experimental: (§1) All animal experimental procedures and protocols were approved by the Institutional Animal Care and Use Committee (Renji Hospital, School of Medicine, Shanghai Jiao Tong University). For subcutaneous models, U87MG cells (2 × 10^6 cells in 100 μl PBS) were implanted into the right flank of female BALB/c nu/nu athymic mice to establish subcutaneous tumor xenografts. For orthotopic xenografts, U87MG cells (0.5 × 10^6 cells in […] PBS) were transplanted into the brains of female BALB/c nude mice (4–6 weeks old). The subcutaneous and orthotopic models were ready for PET imaging 3 weeks after tumor cell inoculation.
U87MG mice were injected with 3.7 MBq of each tracer and sacrificed at different times (30, 60, and 90 min p.i.; n = 3 for each time point). The main organs, including the kidney, intestine, liver, heart, lung, muscle, brain, and tumors, were isolated, weighed, and analyzed. The biodistribution in the [^68Ga] Ga-DOTA-FAPI-04 group (3.7 MBq) with approximately 100 μg of unlabeled DOTA-FAPI-04 was also evaluated for comparison. The radioactivity of the samples was determined using an automated γ-counter (Perkin-Elmer), and the uptake of the radiotracers in different organs/tissues was calculated and presented as percent of injected dose per Gram of tissue (%ID/g, mean ± SD).

[1] = In vitro stability in PBS at 37°C (radio-HPLC); type: physicochemical; details: 150 min
Experimental: The radiochemical purities were analyzed by a radio-HPLC column (C18-B, 250 mm × 4.6 mm, 5 μm, 120 Å, Morhchem Technologies Inc., United States) (details presented in the Supplementary Material).

[2] = system: U87MG orthotopic xenograft glioma; assay: Small-animal PET in the U87MG orthotopic xenograft glioma model; type: in vivo, nude mice (female BALB/c); details: 60 min p.i., n = 3
Experimental: as §1
Ga-DOTA-FAPI-04 were diluted or concentrated to a 74 MBq/mL. […] Ga-DOTA-FAPI-04 was intravenously injected into U87MG tumor-bearing nude mice (n = 3 for each group). For static PET imaging, the acquisition times were 30, 60, and 90 min postinjection (p.i.). Each static scan consists of CT scan and PET scan. The CT scan time is 20 s and the PET scan time is 10 min. […] Regions of interest (ROIs) in the tumor, liver, heart, kidney, brain, and lung were counted on the PET images to quantify the radioactive signals. […] PET data were reconstructed with three-dimensional ordered-subset expectation-maximization (3D-OSEM) algorithm with Monte-Carlo based accurate detector model and subsequently was analyzed with Avatar 1.2 software (Pingseng China).

FAP = system: FAP; design: method as in PMID 32222810; details: ref (3); cited from earlier work
[3] = 60 min p.i. (time taken from the order of the sentence)
[4] = 90 min p.i. (time taken from the order of the sentence)
[5] = time printed as 'at 60 and 90 min p.i.', one value per probe

Row | Compound | Brain uptake (U87MG tumor xenografts; 30 min p.i.) | Heart uptake (U87MG tumor xenografts; 30 min p.i.) | Intestine uptake (U87MG tumor xenografts; 30 min p.i.) | Kidney uptake (U87MG tumor xenografts; 30 min p.i.) | Liver uptake (U87MG tumor xenografts; 30 min p.i.) | Lung uptake (U87MG tumor xenografts; 30 min p.i.) | Muscle uptake (U87MG tumor xenografts; 30 min p.i.) | T/L ratio (tumor/liver) (U87MG tumor xenografts; 30 min p.i.) | tumor-to-muscle (T/M) ratio (U87MG tumor xenografts; 30 min p.i.) | Tumor uptake (U87MG tumor xenografts; 30 min p.i.) | Brain uptake (U87MG tumor xenografts; 60 min p.i.) | Heart uptake (U87MG tumor xenografts; 60 min p.i.) | Intestine uptake (U87MG tumor xenografts; 60 min p.i.) | Kidney uptake (U87MG tumor xenografts; 60 min p.i.) | Liver uptake (U87MG tumor xenografts; 60 min p.i.) | Lung uptake (U87MG tumor xenografts; 60 min p.i.) | Muscle uptake (U87MG tumor xenografts; 60 min p.i.) | T/L ratio (tumor/liver) (U87MG tumor xenografts; 60 min p.i.) | tumor-to-muscle (T/M) ratio (U87MG tumor xenografts; 60 min p.i.) | T/K ratio (tumor/kidney) (U87MG tumor xenografts; [3]) | other results
1 | COc1ccc2nccc(C(=O)NCC(=O)N3CCC[C@H]3C#N)c2c1 [^11C-RJ1101, (S)-N-(2-(2-cyanopyrrolidin-1-yl)-2-oxoethyl)-6-(methoxy-11C)quinoline-4-carboxamide] | 0.18 ± 0.02 %ID/g | 0.59 ± 0.01 %ID/g | 4.95 ± 0.31 %ID/g | 1.28 ± 0.06 %ID/g | 7.20 ± 1.71 %ID/g | 0.56 ± 0.08 %ID/g | 0.42 ± 0.04 %ID/g | 0.19 ± 0.03 | 3.19 ± 0.06 | 1.34 ± 0.10 %ID/g | 0.02 ± 0.00 %ID/g | 0.06 ± 0.01 %ID/g | 2.72 ± 0.45 %ID/g | 0.17 ± 0.02 %ID/g | 0.24 ± 0.03 %ID/g | 0.05 ± 0.01 %ID/g | 0.06 ± 0.01 %ID/g | 0.63 ± 0.04 | 2.26 ± 0.25 | 0.89 ± 0.05 | Tumor uptake (U87MG tumor xenografts; 60 min p.i.): 0.15 ± 0.01 %ID/g; Heart uptake (U87MG tumor xenografts; 90 min p.i.): 0.01 ± 0.00 %ID/g; Intestine uptake (U87MG tumor xenografts; 90 min p.i.): 0.67 ± 0.02 %ID/g; Kidney uptake (U87MG tumor xenografts; 90 min p.i.): 0.03 ± 0.00 %ID/g; Liver uptake (U87MG tumor xenografts; 90 min p.i.): 0.06 ± 0.00 %ID/g; Lung uptake (U87MG tumor xenografts; 90 min p.i.): 0.01 ± 0.00 %ID/g; Muscle uptake (U87MG tumor xenografts; 90 min p.i.): 0.01 ± 0.00 %ID/g; T/L ratio (tumor/liver) (U87MG tumor xenografts; 90 min p.i.): 0.34 ± 0.06; tumor-to-muscle (T/M) ratio (U87MG tumor xenografts; 90 min p.i.): 2.00 ± 0.00; T/K ratio (tumor/kidney) (U87MG tumor xenografts; [4]): 0.67 ± 0.01; Tumor uptake (U87MG tumor xenografts; 90 min p.i.): 0.02 ± 0.00 %ID/g; T/K ratio (tumor/kidney) (U87MG tumor xenografts; [5]): 1.05 ± 0.03; radioactive purity after incubation in PBS (in vitro stability) [1]: over 99%
2 | [11CH3]Oc1ccc2nccc(C(=O)NCC(=O)N3CC(F)(F)C[C@H]3C#N)c2c1 [^11C-RJ1102, (S)-N-(2-(2-cyano-4,4-difluoropyrrolidin-1-yl)-2-oxoethyl)-6-(methoxy-11C) quinoline-4-carboxamide] | 0.16 ± 0.01 %ID/g | 0.78 ± 0.10 %ID/g | 5.08 ± 0.24 %ID/g | 1.84 ± 0.01 %ID/g | 2.87 ± 0.12 %ID/g | 0.65 ± 0.02 %ID/g | 0.74 ± 0.03 %ID/g | 0.60 ± 0.03 | 2.30 ± 0.32 and 2.30 ± 0.02 | 1.71 ± 0.08 %ID/g | 0.07 ± 0.03 %ID/g | 0.26 ± 0.01 %ID/g | 2.63 ± 0.28 %ID/g | 0.48 ± 0.02 %ID/g | 1.00 ± 0.05 %ID/g | 0.25 ± 0.03 %ID/g | 0.20 ± 0.01 %ID/g | 0.62 ± 0.03 | 3.10 ± 0.14 | 1.29 ± 0.07 | Tumor uptake (U87MG tumor xenografts; 60 min p.i.): 0.62 ± 0.06 %ID/g; Brain uptake (U87MG tumor xenografts; 90 min p.i.): 0.02 ± 0.01 %ID/g; Heart uptake (U87MG tumor xenografts; 90 min p.i.): 0.07 ± 0.01 %ID/g; Intestine uptake (U87MG tumor xenografts; 90 min p.i.): 1.10 ± 0.25 %ID/g; Kidney uptake (U87MG tumor xenografts; 90 min p.i.): 0.13 ± 0.02 %ID/g; Liver uptake (U87MG tumor xenografts; 90 min p.i.): 0.29 ± 0.02 %ID/g; Lung uptake (U87MG tumor xenografts; 90 min p.i.): 0.06 ± 0.01 %ID/g; Muscle uptake (U87MG tumor xenografts; 90 min p.i.): 0.04 ± 0.00 %ID/g; T/L ratio (tumor/liver) (U87MG tumor xenografts; 90 min p.i.): 0.62 ± 0.03; tumor-to-muscle (T/M) ratio (U87MG tumor xenografts; 90 min p.i.): 4.50 ± 0.50; T/K ratio (tumor/kidney) (U87MG tumor xenografts; [4]): 1.39 ± 0.06; Tumor uptake (U87MG tumor xenografts; 90 min p.i.): 0.18 ± 0.02 %ID/g; T/K ratio (tumor/kidney) (U87MG tumor xenografts; [5]): 0.93 ± 0.04; tumor accumulation (small-animal PET) [2]: 0.22 ± 0.02 ID%/g; radioactive purity after incubation in PBS (in vitro stability) [1]: over 99%
3 | COc1ccc2nccc(C(=O)NCC(=O)N3CC(F)(F)C[C@H]3C#N)c2c1 [compound 4, (S)-N-(2-(2-cyano-4,4-difluoropyrrolidin-1-yl)-2-oxoethyl)-6-(methoxy)quinoline-4-carboxamide] |  |  |  |  |  |  |  |  |  |  |  |  |  |  |  |  |  |  |  |  | IC50 (FAP): 8.5 ± 0.9 nM
